Experimental data from EP1285918A1, “C7 Ester substituted taxanes as antitumor agents” (Florida State University Research Foundation, Inc., priority 2001, dated 2003).
Read-outs that look alike come from different tables or passages of the source.

Key:
[1] = system: MX-1 Human Breast Carcinoma Xenograft; settings: for MDS (n): days until tumor reached 1.5 g; for Partial Response: Taxotere 100 and 70 mg/kg groups together
Method: The antitumor compounds were prepared in the following vehicle: 5% ethanol, 5% Cremophor and 90% isotonic saline.
Female Nu/Nu mice (12-13 weeks of age; implanted with 1 mm^3 MX-1 human breast carcinoma fragments in the flank) were sorted into treatment groups of six mice each (MX-1 tumor size ranges and group mean MX-1 tumor size ranges were 56-138 mg and 68-74 mg, respectively). […] All treatments were administered as a single oral bolus on Day 1, and the study was terminated on Day 60.
(§1) The mean days of survival is the number of days after which an MX-1 neoplasm reached a size of 1.5 g and the animal was euthanized. A complete response is obtained if the tumor is not palpable at the end of the study. A partial response is obtained if the tumor shrinks to a size smaller than its size on Day 1 of the study.

[2] = system: A375 Human Melanoma Xenograft
Method: Female nu/nu mice (6-8 weeks of age; implanted subcutaneously with 1 mm^3 A375 melanoma fragments in the flank) were sorted into one control and four treatment groups of ten mice each (group mean tumor size of 96-98 mg). […] The study was terminated on Day 60.
as §1, with “a” for “an MX-1”, “2.0” for “1.5”

SK-MES carcinoma = assay: In vivo evaluation against SK-MES human lung carcinoma xenograft, i.v. (Example 11)
Method: (§2) Two antitumor compounds were formulated for an i.v. dosing regime prepared in the following vehicle: 10% ethanol, 10% Cremophor and 80% isotonic saline. […] Other compounds were formulated similarly.
(§3) The MTDs for the antitumor compounds were calculated from earlier single dose data for mice receiving i.v. administration of these compounds. […] Vehicle control animals were dosed twice intravenously with half the total volume being given separated by one hour. The study was terminated at Day 60.
as §1, with “The results are summarized in Table 1 and include mean days of survival (MDS), number of toxic deaths, number of survivors, number of complete or partial responses, and number with stable disease. The” for “The”, “a” for “an MX-1”
(§4) A tumor scoring system was designed to provide a more quantitative ranking of efficacy (therapeutic potential) among the antitumor agents evaluated against the different human solid tumor xenografts. Each mouse in a study was given a score of from 1 to 10 at the end of the study. The scores can be summarized as follows:
(§5) The individual score for each mouse was averaged into a mean score for each treatment group. […]

[3] = system: SKMES human lung cancer xenograft
Method: Female Nu/Nu mice (6-8 weeks of age; implanted with 1 mm^3 SKMES lung carcinoma fragments in the flank) were sorted into treatment groups of six mice each. […] Treatment was administered as a single bolus on Day 1, and the study was terminated on Day 62.
as §1, with “a SKMES” for “an MX-1”, “2.0” for “1.5”

[4] = system: NCI-H1299 (H1299) carcinoma
Method: as §2, §3
as §1, with “The results are summarized in Table 1 and include mean days of survival (MDS), number of toxic deaths, number of survivors, number of complete or partial responses, and number with stable disease. The” for “The”, “a” for “an MX-1”
as §4, §5
The treatment protocol for the H1299 test was identical to the SK-MES test protocol. […]

[5] = system: HCT116 Human Colon Carcinoma Xenograft; settings: for Mean Score: tumor score 1 to 10, group mean
[6] = 28 mg/kg single oral bolus Day 1, 6 mice/group, study end Day 60
[7] = 40 mg/kg single oral bolus Day 1, 6 mice/group, study end Day 60
[8] = MX-1, single oral bolus, Taxol 40 and 28 mg/kg groups together, Day 60
[9] = 40 mg/kg single oral bolus, 10 mice/group, study end Day 60
[10] = i.v. split dose qd x 1 at MTD (Taxol 36 mg/kg, 1393 72.1 mg/kg), 6 mice/group, 1.5 g cut-off, Day 60
[11] = i.v. split dose qd x 1 at MTD (Taxol 36 mg/kg, 1393 72.1 mg/kg), 6 mice/group, Day 60
[12] = i.v. split dose qd x 1 at MTD (Taxol 36 mg/kg, 1393 72.1 mg/kg), tumor score 1 to 10 per mouse, group mean
[13] = 40 mg/kg single oral bolus Day 1, 6 mice/group, study end Day 62
[14] = HCT116, Taxol i.p. 18 mg/kg qd x 5
[15] = HCT116, Taxol i.p. 18 mg/kg qd x 5, 5 mice, Day 60
[16] = HCT116, i.v. Day 1 (Taxol 36 mg/kg split dose, 1393 73 mg/kg single dose), 5 mice/group, Day 60
[17] = 70 mg/kg single oral bolus Day 1, 6 mice/group, study end Day 60
[18] = 100 mg/kg single oral bolus Day 1, 6 mice/group, study end Day 60

CC(=O)O[C@H]1C(=O)[C@@]2(C)[C@H]([C@H](OC(=O)c3ccccc3)[C@]3(O)C[C@H](OC(=O)[C@H](O)[C@@H](NC(=O)c4ccccc4)c4ccccc4)C(C)=C1C3(C)C)[C@]1(OC(C)=O)CO[C@@H]1C[C@@H]2O [Taxol, paclitaxel, reference compound]
Complete Responses [1, 6]: 0
Partial Responses [1, 6]: 0
Stable Disease [1, 6]: 1
Survivors [1, 6]: 1
Toxic Deaths [1, 6]: 0
MDS (n) [1, 6]: 23.1 ± 1.7 (5) days
Complete Responses [1, 7]: 0
Partial Responses [1, 7]: 1
Stable Disease [1, 7]: 0
Survivors [1, 7]: 1
Toxic Deaths [1, 7]: 0
MDS (n) [1, 7]: 23.2 ± 1.3 (5) days
Stable Disease [1, 8]: one
Partial Response [1, 8]: One
Complete Response [2, 9]: 0
Partial Response [2, 9]: 1
Stable Disease [2, 9]: 1
Survivors [2, 9]: 2
Toxic Deaths [2, 9]: 0
MDS (n) ([2]; 40 mg/kg single oral bolus, 10 mice/group, study end Day 60, days until tumor reached 2.0 g): 23.7 ± 3.0 (8) days
activity ([2]; A375, paclitaxel 40 mg/kg single oral bolus (Group 2)): not active
survival extension compared to vehicle controls (SK-MES carcinoma; Taxol 36 mg/kg i.v.): 30%
tolerability (SK-MES carcinoma; i.v. at MTD): well tolerated
MDS (n) (SK-MES carcinoma; [10]): 16 ± 2.0 (6) days
Complete Response (SK-MES carcinoma; [11]): 0
Partial Response (SK-MES carcinoma; [11]): 0
Stable Disease (SK-MES carcinoma; [11]): 0
Survivors (SK-MES carcinoma; [11]): 0
Toxic Deaths (SK-MES carcinoma; [11]): 0
Mean Score (SK-MES carcinoma; [12]): 1.3 ± 0.3
% Total Response [3, 13]: 0%
Complete Responses [3, 13]: 0
Partial Responses [3, 13]: 0
Stable Disease [3, 13]: 0
Survivors [3, 13]: 0
Toxic Deaths [3, 13]: 1
MDS (n) ([3]; 40 mg/kg single oral bolus Day 1, 6 mice/group, study end Day 62, days until tumor reached 2.0 g): 9.2±1.4 (5) days
activity ([3]; SKMES, Taxol orally 40 mg/kg single bolus (Group 10)): not active
survival extension compared to vehicle-treated animals ([4]; Taxol 36 mg/kg i.v.): 10%
MDS (n) [4, 10]: 27.0 ± 4.6 (5) days
Complete Response [4, 11]: 0
Stable Disease [4, 11]: 0
Survivors [4, 11]: 1
Toxic Deaths [4, 11]: 0
Mean Score [4, 12]: 2.7 ± 1.3
increase in survival compared to control Group 1 ([5]; HCT116, Taxol 36 mg/kg i.v. qd x 1): 24%
survival extension compared to Group 1 control mice [5, 14]: 84%
Complete Response [5, 15]: 0
Stable Disease [5, 15]: 0
Survivors [5, 15]: 1
Toxic Deaths [5, 15]: 0
Mean Score [5, 14]: 3.6 ± 1.4
MDS (n) ([5]; HCT116, i.v. Day 1 (Taxol 36 mg/kg split dose, 1393 73 mg/kg single dose), 5 mice/group, 2.0 g cut-off, Day 60): 27.5 ± 1.7 (4) days
Complete Response [5, 16]: 0
Partial Response [5, 16]: 0
Survivors [5, 16]: 1
Toxic Deaths [5, 16]: 0
Mean Score ([5]; HCT116, i.v. Day 1 (Taxol 36 mg/kg split dose, 1393 73 mg/kg single dose)): 2.2 ± 0.5
tolerability ([5]; mouse, in vivo, iv, 73 mg/kg): well-tolerated

CC(=O)O[C@@]12CO[C@@H]1C[C@H](O)[C@@]1(C)C(=O)[C@H](O)C3=C(C)[C@@H](OC(=O)[C@H](O)[C@@H](NC(=O)OC(C)(C)C)c4ccccc4)C[C@@](O)([C@@H](OC(=O)c4ccccc4)[C@H]21)C3(C)C [docetaxel, reference compound]
Complete Responses [1, 17]: 0
Partial Responses [1, 17]: 0
Stable Disease [1, 17]: 0
Survivors [1, 17]: 0
Toxic Deaths [1, 17]: 0
MDS (n) [1, 17]: 27.9 ± 4.3 (6) days
Complete Responses [1, 18]: 0
Partial Responses [1, 18]: 1
Stable Disease [1, 18]: 0
Survivors [1, 18]: 1
Toxic Deaths [1, 18]: 0
MDS (n) [1, 18]: 27.1 ± 3.5 (5) days
Partial Response [1, 8]: One
